The NIST ThermoML archive (doi:10.1021/je400250u)
± gives the expanded uncertainty stated by the source.

Test: xn = mol fraction of the nth substance listed
Conditions: 100 kPa, Liquid; for viscosity: Capillary tube (Ostwald / Ubbelohde) method; for mass density: Vibrating tube method

C1CC[C@H]2CCCC[C@@H]2C1 [trans-decahydronaphthalene] + CCCCCCCCCC
Conditions	mass density, 293.15 K [kg/m3]	mass density, 298.15 K [kg/m3]	mass density, 303.15 K [kg/m3]	mass density, 308.15 K [kg/m3]	viscosity, 293.15 K [mPa·s]	viscosity, 298.15 K [mPa·s]	viscosity, 303.15 K [mPa·s]	viscosity, 308.15 K [mPa·s]	viscosity, 313.15 K [mPa·s]
x1 = 0.1035	743.5 ± 0.22	739.74 ± 0.22	735.97 ± 0.22	732.17 ± 0.22	0.98 ± 0.012	0.91 ± 0.012	0.848 ± 0.012	0.794 ± 0.012	0.744 ± 0.011
x1 = 0.2016	755.54 ± 0.21	751.79 ± 0.21	748.02 ± 0.21	744.24 ± 0.21	1.035 ± 0.012	0.958 ± 0.012	0.89 ± 0.012	0.834 ± 0.012	0.778 ± 0.011
x1 = 0.3001	768 ± 0.2	764.27 ± 0.2	760.51 ± 0.2	756.74 ± 0.2	1.099 ± 0.012	1.019 ± 0.012	0.946 ± 0.012	0.884 ± 0.012	0.828 ± 0.011
x1 = 0.3994	781.01 ± 0.19	777.28 ± 0.19	773.52 ± 0.19	769.76 ± 0.19	1.175 ± 0.013	1.087 ± 0.012	1.01 ± 0.012	0.941 ± 0.012	0.881 ± 0.012
x1 = 0.5036	795.1 ± 0.18	791.38 ± 0.18	787.63 ± 0.18	783.88 ± 0.18	1.272 ± 0.013	1.174 ± 0.012	1.09 ± 0.012	1.013 ± 0.012	0.947 ± 0.012
x1 = 0.6062	809.53 ± 0.17	805.81 ± 0.17	802.07 ± 0.17	798.32 ± 0.17	1.388 ± 0.013	1.28 ± 0.013	1.185 ± 0.012	1.101 ± 0.012	–
x1 = 0.6989	822.98 ± 0.16	819.26 ± 0.16	815.53 ± 0.16	811.79 ± 0.16	1.514 ± 0.013	1.394 ± 0.013	1.285 ± 0.013	1.197 ± 0.012	–
x1 = 0.7891	836.46 ± 0.15	832.75 ± 0.15	829.02 ± 0.15	825.29 ± 0.15	1.649 ± 0.014	1.514 ± 0.013	1.396 ± 0.013	1.293 ± 0.013	–
x1 = 0.8949	852.8 ± 0.14	849.09 ± 0.15	845.37 ± 0.15	841.64 ± 0.15	1.848 ± 0.014	1.694 ± 0.014	1.555 ± 0.013	1.436 ± 0.013	–
x1 = 1	869.78 ± 0.13	866.07 ± 0.13	862.34 ± 0.14	858.61 ± 0.14	2.112 ± 0.015	1.925 ± 0.015	1.769 ± 0.014	1.628 ± 0.013	–
